How the values were obtained:
Test in all cases: Herbicidal greenhouse screening, post-emergence
Assay type in all cases: in vivo
Conditions in all cases: visual, 3 weeks after spraying
[1] = tested on: Echinochloa crus‐galli (ECHCG)
Description: (§1) Seeds of mono‐ and dicotyledonous weed plants were sown in plastic pots of 7 cm diameter filled with a clayey silt soil substrate. The plants were maintained for the preparatory phase of germination and initial growth in the greenhouse under optimum growth conditions. Phosphonothrixin (1) was prepared for application as an emulsion concentrate and diluted together with 0.2% agrotin (a polyfunctional non‐ionic additive) in water corresponding to a spray volume of approximately 600 L ha^−1. At a growth stage of 2 to 4 true leaves the test plants were sprayed and then placed in the greenhouse for 3 weeks under optimum growth conditions. Subsequently, the effect of phosphonothrixin (1) was assessed visually relative to the untreated controls resulting in herbicidal effects (%) ranging from 0% (no effect = untreated control) to 100% (complete control = died‐off ).

[2] = tested on: Cyperus esculentus (CYPES)
Description: as §1

Oryza sativa (ORYSA) = tested on: Oryza sativa (ORYSA)
Description: as §1

Veronica persica (VERPE) = tested on: Veronica persica (VERPE)
Description: as §1

Viola tricolor (VIOTR) = tested on: Viola tricolor (VIOTR)
Description: as §1

Stellaria media (STEME) = tested on: Stellaria media (STEME)
Description: as §1

[3] = tested on: Brassica napus (winter rape, BRSNW)
Description: as §1

[4] = tested on: Amaranthus retroflexus (AMARE)
Description: as §1

Measured: herbicidal effect rating, post-emergence

CC(=O)C(O)(CO)CP(=O)(O)O (centres unmarked) [phosphonothrixin]
2 (‘2’ = 40–59% inhibition): [1]; 320 g/ha | [2]; 320 g/ha | Oryza sativa (ORYSA); 5120 g/ha | [3]; 80 g/ha | [4]; 80 g/ha
1 (‘1’ = 20–39% inhibition): [1]; 80 g/ha | Oryza sativa (ORYSA); 1280 g/ha | Viola tricolor (VIOTR); 80 g/ha
4 (‘4’ = 80–90% inhibition): [1]; 1280 g/ha | [1]; 5120 g/ha | [2]; 5120 g/ha | Veronica persica (VERPE); 1280 g/ha | Veronica persica (VERPE); 5120 g/ha | Viola tricolor (VIOTR); 1280 g/ha | Viola tricolor (VIOTR); 5120 g/ha | Stellaria media (STEME); 5120 g/ha | [3]; 1280 g/ha | [3]; 5120 g/ha | [4]; 1280 g/ha | [4]; 5120 g/ha
3 (‘3’ = 60–79% inhibition): [2]; 1280 g/ha | Veronica persica (VERPE); 80 g/ha | Veronica persica (VERPE); 320 g/ha | Viola tricolor (VIOTR); 320 g/ha | Stellaria media (STEME); 80 g/ha | Stellaria media (STEME); 320 g/ha | Stellaria media (STEME); 1280 g/ha | [3]; 320 g/ha | [4]; 320 g/ha
